Consider 31 molecules from patent US7115629B2, “Carbamates derived from arylalkylamines” (Laboratorios S.A.L.V.A.T., S.A., priority 2000, dated 2006).

Usually Ki stands for a measure of affinity in units of concentration, obtained from inhibition or displacement.

One test concerns M2 and M3 receptors. The following applies: background statement; compounds exhibit M3 antagonist activity; cited from earlier work.
Another test concerns the target T1, human M2 receptors (Homo sapiens, UniProt P08172).
T1 construct: purchased Receptor Biology; host or cells: CHO-K1 cells transfected with the human receptor (membranes)
T1 sequence (P08172 1-466): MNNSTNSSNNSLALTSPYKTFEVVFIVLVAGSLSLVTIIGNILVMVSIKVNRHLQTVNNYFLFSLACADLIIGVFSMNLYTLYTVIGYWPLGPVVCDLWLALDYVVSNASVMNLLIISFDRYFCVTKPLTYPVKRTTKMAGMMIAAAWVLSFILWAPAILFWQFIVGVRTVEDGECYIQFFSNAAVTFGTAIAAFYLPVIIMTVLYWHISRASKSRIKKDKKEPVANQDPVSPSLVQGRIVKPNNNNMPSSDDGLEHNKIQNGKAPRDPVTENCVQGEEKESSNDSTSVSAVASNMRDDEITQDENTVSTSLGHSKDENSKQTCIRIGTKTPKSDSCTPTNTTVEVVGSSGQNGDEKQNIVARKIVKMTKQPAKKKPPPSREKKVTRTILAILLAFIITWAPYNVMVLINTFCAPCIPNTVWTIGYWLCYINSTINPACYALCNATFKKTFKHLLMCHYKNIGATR
The test can be described thus: Binding test to cloned human M2 muscarinic receptor ([3H]-NMS displacement, CHO-K1 membranes), reported as M2/M3 ratio. The following applies: value greater than 1 indicates selectivity for the M3 receptor. As to the method: (§1) Membranes from CHO—K1 cells transfected with human M2 or M3 receptors (Receptor Biology) were used. The summarised experimental procedure for both receptors was the following: membranes (15–20 μg) were incubated with [^3H]-NMS (0.3–0.5 nM) for 60 min at 25° C., in presence or absence of the antagonists. Incubation was carried out in 96 wells polystyrene microplates in a total incubation volume of 0.2 mL of PBS pH 7.4. Non specific binding was determined in parallel assays in presence of atropine (5 μM). Samples were filtered through type GF/C glass fibre, preincubated with PEI 0.3%. Filters were washed 3–4 times with 50 mM Tris-HCl, 0.9% NaCl, pH 7.4 at 4° C., and dried at 50° C. for 45 min. Filter bound radioactivity was quantified by liquid scintillation counting.
(§2) For the calculation of the inhibition constant (Ki), displacement curves were analysed by non-linear regression (GraphPad Prism). Dissociation constant (KD) of [^3H]-NMS for each receptor was obtained through the saturation curves obtained in the same conditions as the experiments carried out with the antagonists.

The target in a further test is T2, human M3 receptors (Homo sapiens, UniProt P20309).
T2 construct: purchased Receptor Biology; host or cells: CHO-K1 cells transfected with the human receptor (membranes)
The test can be described thus: Binding test to cloned human M3 muscarinic receptor ([3H]-NMS displacement, CHO-K1 membranes). The following applies: membranes of CHO-K1 cells transfected with human M3; [3H]-NMS; mean of two independent experiments in duplicate; read-out: M3 (human M3 antagonist activity, binding affinity constant Ki). The protocol: as §1, §2

T2 sequence (P20309 whole entry): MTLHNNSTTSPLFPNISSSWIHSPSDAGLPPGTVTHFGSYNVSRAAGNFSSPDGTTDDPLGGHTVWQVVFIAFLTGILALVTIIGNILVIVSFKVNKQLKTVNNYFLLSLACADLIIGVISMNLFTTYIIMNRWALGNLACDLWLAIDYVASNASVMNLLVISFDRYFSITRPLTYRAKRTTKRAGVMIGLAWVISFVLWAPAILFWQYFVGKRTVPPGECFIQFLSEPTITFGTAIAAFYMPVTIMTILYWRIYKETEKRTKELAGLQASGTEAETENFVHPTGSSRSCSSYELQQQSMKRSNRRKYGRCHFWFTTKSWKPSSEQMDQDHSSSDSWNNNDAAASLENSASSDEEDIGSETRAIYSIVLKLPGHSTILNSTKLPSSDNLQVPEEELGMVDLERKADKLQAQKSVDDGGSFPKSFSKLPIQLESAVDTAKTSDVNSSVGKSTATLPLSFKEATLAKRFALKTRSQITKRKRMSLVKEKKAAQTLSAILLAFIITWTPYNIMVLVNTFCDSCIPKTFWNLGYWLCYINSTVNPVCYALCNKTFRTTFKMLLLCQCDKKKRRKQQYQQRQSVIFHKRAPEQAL

Turning to `NC(=O)C(c1ccccc1)(c1ccccc1)[C@@H]1CCN(CCc2ccc3c(c2)CCO3)C1` [DARIFENACIN, darifenacin], the “affinity towards the M2 receptor” value in the test with M2 and M3 receptors is “without any significant affinity”.

In the case of `O=C(OC1CN2CCC1CC2)N1CCc2ccccc2[C@@H]1c1ccccc1` (some centres unmarked) [YM-905, reference compound], the “M2/M3 (ratio between M2 and M3 receptor affinities)” value on human M2 receptors is 24. For the same molecule, the “affinity towards the M2 receptor” value in the test with M2 and M3 receptors is “without any significant affinity”. The inhibition constant Ki on human M3 receptors turned out to be 1.72 nM.

Consider `O=C(OC1CN2CCC1CC2)N(Cc1cc(F)c(F)c(F)c1)c1ccc(F)cc1` (centres unmarked) [Example 37], for which the “M2/M3 (ratio between M2 and M3 receptor affinities)” value at human M2 receptors was found to be 134. Moreover, the inhibitory constant (Ki) at human M3 receptors was found to be 0.66 nM.

As for `O=C(OC1CN2CCC1CC2)N(CC1CCCCC1)c1ccccc1F` (centres unmarked) [Example 57], the “M2/M3 (ratio between M2 and M3 receptor affinities)” value on human M2 receptors stood at 300. The Ki on human M3 receptors worked out at 0.025 nM.

Take `Cc1ccccc1N(Cc1ccc(CO)cc1)C(=O)OC1CN2CCC1CC2` (centres unmarked) [Example 42]: the “M2/M3 (ratio between M2 and M3 receptor affinities)” value on human M2 receptors was found to be 38. Besides, the Ki on human M3 receptors was 1.17 nM.

For `Cc1ccccc1N(Cc1ccccc1)C(=O)OC1C[N+]2(C)CCC1CC2.[I-]` (centres unmarked) [Example 65], on human M2 receptors, the “M2/M3 (ratio between M2 and M3 receptor affinities)” value is 13. Moreover, the inhibition constant (Ki) at human M3 receptors was found to be 14.3 nM.

In the case of `CCc1ccc(CN(C(=O)OC2CN3CCC2CC3)c2ccccc2)cc1` (centres unmarked) [Example 40], the “M2/M3 (ratio between M2 and M3 receptor affinities)” value on human M2 receptors is recorded as 92. Moreover, at human M3 receptors, the Ki was determined as 0.066 nM.

As for `O=C(O[C@H]1CN2CCC1CC2)N(Cc1ccccc1)c1c(F)cccc1F` [Example 8], the “M2/M3 (ratio between M2 and M3 receptor affinities)” value at human M2 receptors stood at 11. Moreover, on human M3 receptors, the inhibition constant Ki stood at 0.2 nM.

Take `C[N+]12CCC(CC1)C(OC(=O)N(Cc1ccc(F)cc1)c1ccccc1)C2.[I-]` (centres unmarked) [Example 64]: on human M2 receptors, the “M2/M3 (ratio between M2 and M3 receptor affinities)” value was determined as 30. Also, the Ki on human M3 receptors amounted to 3.6 nM.

On to `COc1ccc(F)c(CN(C(=O)OC2CN3CCC2CC3)c2ccccc2)c1` (centres unmarked) [Example 25], for which the “M2/M3 (ratio between M2 and M3 receptor affinities)” value on human M2 receptors turned out to be 19. Moreover, the inhibitory constant (Ki) on human M3 receptors was determined as 1.7 nM.

On to `O=C(OC1CN2CCC1CC2)N(Cc1ccc(Cl)c(Cl)c1)c1ccccc1` (centres unmarked) [Example 29], for which the “M2/M3 (ratio between M2 and M3 receptor affinities)” value at human M2 receptors came to 50. Also, at human M3 receptors, the inhibition constant Ki turned out to be 1.4 nM.

On to `O=C(OC1CN2CCC1CC2)N(Cc1ccc(F)cc1)c1cccc(F)c1F` (centres unmarked) [Example 18], for which the “M2/M3 (ratio between M2 and M3 receptor affinities)” value on human M2 receptors is 154. In addition, on human M3 receptors, the Ki stood at 0.92 nM.

For `O=C(OC1CN2CCC1CC2)N(CC1CC2C=CC1C2)c1ccccc1` (centres unmarked) [Example 63], the “M2/M3 (ratio between M2 and M3 receptor affinities)” value on human M2 receptors worked out at 64. For the same molecule, the Ki at human M3 receptors was determined as 0.06 nM.

In the case of `O=C(OC1CN2CCC1CC2)N(CC1CC=CCC1)c1cccc(Cl)c1` (centres unmarked) [Example 61], on human M2 receptors, the “M2/M3 (ratio between M2 and M3 receptor affinities)” value is 74. Also, the Ki at human M3 receptors was determined as 0.35 nM.

As for `Cc1cccc(N(CC2CCC(C)CC2)C(=O)OC2CN3CCC2CC3)c1` (centres unmarked) [Example 58], on human M2 receptors, the “M2/M3 (ratio between M2 and M3 receptor affinities)” value turned out to be 93. Besides, the Ki on human M3 receptors was determined as 0.088 nM.

`Cc1cccc(C)c1N(Cc1ccccc1)C(=O)OC1CN2CCC1CC2` (centres unmarked) [Example 11]: the “M2/M3 (ratio between M2 and M3 receptor affinities)” value on human M2 receptors is 11. The inhibition constant Ki at human M3 receptors turned out to be 6.12 nM.

Regarding `O=C(OC1CN2CCC1CC2)N(CC1CCC1)c1ccccc1` (centres unmarked) [Example 55], on human M2 receptors, the “M2/M3 (ratio between M2 and M3 receptor affinities)” value is recorded as 110. Besides, the Ki at human M3 receptors is 0.35 nM.

With `CC(C)Oc1ccc(CN(C(=O)OC2CN3CCC2CC3)c2ccccc2)cc1` (centres unmarked) [Example 50], the “M2/M3 (ratio between M2 and M3 receptor affinities)” value on human M2 receptors is listed as 26. Besides, the Ki at human M3 receptors was 0.84 nM.

On to `N#Cc1ccc(N(Cc2ccccc2)C(=O)OC2CN3CCC2CC3)cc1` (centres unmarked) [Example 13], for which the “M2/M3 (ratio between M2 and M3 receptor affinities)” value on human M2 receptors was 17. Moreover, the inhibition constant (Ki) on human M3 receptors turned out to be 4.31 nM.

In the case of `Cc1cccc(N(Cc2ccc(C)c(F)c2)C(=O)OC2CN3CCC2CC3)c1` (centres unmarked) [Example 31], the “M2/M3 (ratio between M2 and M3 receptor affinities)” value on human M2 receptors came out at 52. Also, at human M3 receptors, the inhibition constant (Ki) is 0.32 nM.

With `O=C(OC1CN2CCC1CC2)N(Cc1ccc(O)cc1)c1ccccc1` (centres unmarked) [Example 47], the “M2/M3 (ratio between M2 and M3 receptor affinities)” value on human M2 receptors turned out to be 33. On human M3 receptors, the Ki amounted to 5.7 nM.

As for `Cc1cccc(N(Cc2cc(F)cc(F)c2)C(=O)OC2CN3CCC2CC3)c1` (centres unmarked) [Example 30], the “M2/M3 (ratio between M2 and M3 receptor affinities)” value at human M2 receptors came to 74. Also, the inhibitory constant (Ki) at human M3 receptors came to 0.09 nM.

`Cc1cccc(N(Cc2ccc(F)cc2)C(=O)OC2C[N+]3(C)CCC2CC3)c1.[I-]` (centres unmarked) [Example 67]: on human M2 receptors, the “M2/M3 (ratio between M2 and M3 receptor affinities)” value is 19. In addition, at human M3 receptors, the Ki turned out to be 3.8 nM.

Regarding `O=C(OC1CN2CCC1CC2)N(Cc1ccc(Cl)cc1Cl)c1ccc(F)cc1F` (centres unmarked) [Example 21], the “M2/M3 (ratio between M2 and M3 receptor affinities)” value on human M2 receptors is 5. For the same molecule, the Ki on human M3 receptors stood at 105 nM.

Regarding `O=C(OC1CN2CCC1CC2)N(Cc1cccc(OC(F)(F)F)c1)c1ccccc1` (centres unmarked) [Example 49], the “M2/M3 (ratio between M2 and M3 receptor affinities)” value at human M2 receptors was 7. Also, the inhibition constant (Ki) at human M3 receptors is 10.1 nM.

Consider `Cc1ccccc1N(Cc1cc(F)c(F)cc1F)C(=O)OC1C[N+]2(C)CCC1CC2.[I-]` (centres unmarked) [Example 66], for which, at human M2 receptors, the “M2/M3 (ratio between M2 and M3 receptor affinities)” value stood at 18. For the same molecule, the Ki at human M3 receptors is 4.7 nM.

As for `CC(C)(C)c1ccc(CN(C(=O)OC2CN3CCC2CC3)c2ccccc2)cc1` (centres unmarked) [Example 41], the “M2/M3 (ratio between M2 and M3 receptor affinities)” value on human M2 receptors was determined as 271. Also, the inhibition constant Ki on human M3 receptors is 0.11 nM.

Take `O=C(OC1CN2CCC1CC2)N(Cc1cccc(F)c1F)c1cccc(Cl)c1` (centres unmarked) [Example 20]: on human M2 receptors, the “M2/M3 (ratio between M2 and M3 receptor affinities)” value is on record as 149. The Ki on human M3 receptors was 0.33 nM.

Take `NC(=O)c1ccc(CN(C(=O)OC2CN3CCC2CC3)c2ccccc2)cc1` (centres unmarked) [Example 44]: the “M2/M3 (ratio between M2 and M3 receptor affinities)” value on human M2 receptors was determined as 6. Besides, the inhibitory constant (Ki) on human M3 receptors came to 7.7 nM.

`O=C(OC1CN2CCC1CC2)N(Cc1cc(F)c(F)c(F)c1)c1cccc(F)c1` (centres unmarked) [Example 36]: the “M2/M3 (ratio between M2 and M3 receptor affinities)” value at human M2 receptors is listed as 545. Further, the Ki at human M3 receptors amounted to 0.04 nM.

In the case of `C[N+]12CCC(CC1)C(OC(=O)N(Cc1ccccc1)c1ccccc1)C2.[I-]` [Example 3, (R)-3-N-benzyl-N-phenylcarbamoyloxy)-1-methylquinuclidinium iodide], on human M2 receptors, the “M2/M3 (ratio between M2 and M3 receptor affinities)” value was determined as 7. In addition, the inhibitory constant (Ki) on human M3 receptors is 2.6 nM.
